From BindingDB's records for doi:10.1021/acs.jmedchem.9b00506 (Rapt Therapeutics, 2019)
pIC50: −log10 of the molar value.

How the values were obtained:
[1] = Antagonist activity at CCR4 in human CCRF-CEM cells assessed as inhibition of CCL22-mediated chemotaxis in presence of 100% human serum pre-incubated for 30 mins followed by CCL22 addition and measured after 60 mins by chemoTX probe based CellTiter-Glo assay
[2] = Antagonist activity at CCR4 in anti-CD3/CD28 stimulated mouse Treg cells assessed as inhibition of CCL22-mediated chemotaxis in presence of 100% human serum pre-incubated for 30 mins followed by CCL22 addition and measured after 60 mins by chemoTX probe based CellTiter-Glo assay

Structure (SMILES) | pIC50 [1] | pIC50 [2]
Cc1nn([C@H](C)c2ccc(Cl)cc2Cl)c2nc(N3CC[C@H](N4CCC[C@H]4CCC(N)=O)[C@H](C)C3)cnc12 | 6.45 | –
Cc1nn([C@H](C)c2ccc(Cl)cc2Cl)c2nc(N3CC[C@H](N4CCCCC4)[C@H](C)C3)cnc12 | 6.44 | –
Cc1nn([C@H](C)c2ccc(Cl)cc2Cl)c2nc(N3CC[C@H](N4CCC[C@H]4CCS(N)(=O)=O)[C@H](C)C3)cnc12 | 6.59 | –
Cc1nn([C@H](C)c2ccc(Cl)cc2Cl)c2nc(N3CC[C@H](N4CCC[C@H]4CCC#N)[C@H](C)C3)cnc12 | 6.06 | –

Further lines, results first:

pIC50 [1] | pIC50 [2] | Structure (SMILES)
5.86 | – | C[C@@H]1CC(c2cnc3c(C#N)nn([C@H](C)c4ccc(Cl)cc4Cl)c3n2)=CC[C@@H]1N1CCC[C@H]1C(N)=O
6.20 | – | C[C@@H]1CC(c2cnc3c(C#N)nn([C@H](C)c4ccc(Cl)cc4Cl)c3n2)=CC[C@@H]1N1CCC[C@H]1CN
7.15 | 6.78 | C[C@@H]1CC(c2cnc3c(C#N)nn([C@H](C)c4ccc(Cl)cc4Cl)c3n2)=CC[C@@H]1N1CCC[C@H]1CO
7.36 | 6.49 | C[C@@H]1CC(c2cnc3c(C#N)nn([C@H](C)c4ccc(Cl)cc4Cl)c3n2)=CC[C@@H]1N1CCC[C@H]1C
6.75 | – | Cc1nn([C@H](C)c2ccc(Cl)cc2Cl)c2nc(C3=CC[C@H](N4CCC[C@H]4CO)[C@H](C)C3)cnc12
5.92 | – | C[C@@H]1CC(c2cnc3c(C#N)nn([C@H](C)c4ccc(Cl)cc4Cl)c3n2)=CC[C@@H]1N1CCC[C@H]1C(C)(C)O
